We go through 11 molecules from patent publication US12594276B2, “Inhibitors of human immunodeficiency virus replication” (ViiV Healthcare UK (No.5) Limited, priority 2024, dated 2026).

The test system of series [1] is recombinant NL4-3 virus (nef section replaced with Renilla luciferase gene) in MT-2 cells. Description: HIV cell culture assay (antiviral activity, luciferase readout). The series is classed as cell-based. The conditions noted are these: Renilla, NL43, MT-2 cells infected for 4-5 days with recombinant NL4-3 Renilla luciferase virus. The method in brief:
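Reporter virus is produced in 293T cells and its titer set in MT-2 cells by luciferase activity. MT-2 cells are then infected in the presence of serially diluted compound for 4-5 days. Luciferase is quantified and EC50 fitted to the median effect equation.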

The nature of series [2]: Compound cytotoxicity, XTT-based colorimetric assay. The series is classed as cell-based. The conditions noted are these: human; uninfected MT2 cells, day 4, XTT; read-out: CC50. The method in brief:
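Uninfected MT2 cells, antiviral-assay protocol without virus; XTT colorimetric readout day 4; CC50 reported.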
On the technique in general: Tetrazolium assays rely on reduction of a dye to a coloured formazan, in cell work by metabolically active cells.

As usually defined, the EC50 is the concentration at which the effect is half-maximal. As a reminder, the CC50 is the concentration at which the toxic effect on the cells reaches its halfway point. Turning to `Cc1cc(C2(C)CCC(F)(F)CC2)nc2nc([C@H](Cc3cc(F)cc(F)c3)NC(=O)Cn3nc(C4CC4)c4c3C[C@@H]3C[C@H]43)n(-c3ccc(Cl)c4c(NS(C)(=O)=O)nn(CCN5C[C@@H](C)O[C@@H](C)C5)c34)c(=O)c12` (atropisomer, axis not shown; (P)) [Example 508, N-[(1S)-1-[(3P)-3-(4-chloro-1-{2-[(2R,6S)-2,6-dimethylmorpholin-4-yl]ethyl}-3-methanesulfonamido-1H-indazol-7-yl)-7-(4,4-difluoro-1-methylcyclohexyl)-5-methyl-4-oxo-3H,4H-pyrido[2,3-d]pyrimidin-2-yl]-2-(3,5-difluorophenyl)ethyl]-2-[(2S,4S)-9-cyclopropyl-7,8-diazatricyclo[4.3.0.0^2,^4]nona-1(6),8-dien-7-yl]acetamide], the EC50 in series [1] worked out at 12 pM. For the same molecule, the CC50 at 4 days in series [2] is over 20000 pM.
For `COCc1cc(C2CCC(F)(F)CC2)nc2nc([C@H](Cc3cc(F)cc(F)c3)NC(=O)Cn3nc(C(F)F)c4c3C(F)(F)[C@@H]3C[C@H]43)n(-c3ccc(Cl)c4c(NS(C)(=O)=O)nn(CCN5CCC(F)(F)CC5)c34)c(=O)c12` (atropisomer, axis not shown; (P)) [Example 676, N-[(1S)-1-[(3P)-3-{4-chloro-1-[2-(4,4-difluoropiperidin-1-yl)ethyl]-3-methanesulfonamido-1H-indazol-7-yl}-7-(4,4-difluorocyclohexyl)-5-(methoxymethyl)-4-oxo-3H,4H-pyrido[2,3-d]pyrimidin-2-yl]-2-(3,5-difluorophenyl)ethyl]-2-[(2S,4R)-9-(difluoromethyl)-5,5-difluoro-7,8-diazatricyclo[4.3.0.0^2,^4]nona-1(6),8-dien-7-yl]acetamide], in that order: 11 pM and over 20000 pM.
In the case of `Cc1cc(C2(F)CCC(F)(F)CC2)nc2nc([C@H](Cc3cc(F)cc(F)c3)NC(=O)Cn3nc(C(F)(F)F)c4c3C(F)(F)[C@@H]3C[C@H]43)n(-c3ccc(Cl)c4c(NS(C)(=O)=O)nn(CCN5C[C@@H](C)O[C@@H](C)C5)c34)c(=O)c12` (atropisomer, axis not shown; (P)) [Example 594, N-[(1S)-1-[(3P)-3-(4-chloro-1-{2-[(2R,6S)-2,6-dimethylmorpholin-4-yl]ethyl}-3-methanesulfonamido-1H-indazol-7-yl)-5-methyl-4-oxo-7-(1,4,4-trifluorocyclohexyl)-3H,4H-pyrido[2,3-d]pyrimidin-2-yl]-2-(3,5-difluorophenyl)ethyl]-2-[(2S,4R)-5,5-difluoro-9-(trifluoromethyl)-7,8-diazatricyclo[4.3.0.0^2,^4]nona-1(6),8-dien-7-yl]acetamide], in series [1], the EC50 was determined as 11 pM. The CC50 at 4 days in series [2] is over 20000 pM.
As to `Cc1cc(C2(F)CCC(F)(F)CC2)nc2nc([C@H](Cc3cc(F)cc(F)c3)NC(=O)Cn3nc(C(F)F)c4c3C(F)(F)[C@@H]3C[C@H]43)n(-c3ccc(Cl)c4c(NS(C)(=O)=O)nn([C@H](C)C(=O)N5C[C@@H](C)O[C@@H](C)C5)c34)c(=O)c12` (atropisomer, axis not shown; (P)) [Example 743, N-[(1S)-1-[(3P)-3-{4-chloro-1-[(2R)-1-[(2R,6S)-2,6-dimethylmorpholin-4-yl]-1-oxopropan-2-yl]-3-methanesulfonamido-1H-indazol-7-yl}-5-methyl-4-oxo-7-(1,4,4-trifluorocyclohexyl)-3H,4H-pyrido[2,3-d]pyrimidin-2-yl]-2-(3,5-difluorophenyl)ethyl]-2-[(2S,4R)-9-(difluoromethyl)-5,5-difluoro-7,8-diazatricyclo[4.3.0.0^2,^4]nona-1(6),8-dien-7-yl]acetamide], in series [1], the EC50 stood at 16 pM. Moreover, the half-maximal cytotoxic concentration (CC50) at 4 days in series [2] was over 20000 pM.
For `COCCCn1nc(NS(C)(=O)=O)c2c(Cl)ccc(-n3c([C@H](Cc4cc(F)cc(F)c4)NC(=O)Cn4nc(C(F)F)c5c4C(F)(F)[C@@H]4C[C@H]54)nc4nc(C5CCC(F)(F)CC5)cc(NCCN5CCCC5)c4c3=O)c21` (atropisomer, axis not shown; (P)) [Example 429, N-[(1S)-1-[(3P)-3-[4-chloro-3-methanesulfonamido-1-(3-methoxypropyl)-1H-indazol-7-yl]-7-(4,4-difluorocyclohexyl)-4-oxo-5-{[2-(pyrrolidin-1-yl)ethyl]amino}-3H,4H-pyrido[2,3-d]pyrimidin-2-yl]-2-(3,5-difluorophenyl)ethyl]-2-[(2S,4R)-9-(difluoromethyl)-5,5-difluoro-7,8-diazatricyclo[4.3.0.0^2,^4]nona-1(6),8-dien-7-yl]acetamide], in that order: 19 pM and over 20000 pM.
Take `Cc1cc(C2CCC(F)(F)CC2)nc2nc([C@H](Cc3cc(F)cc(F)c3)NC(=O)Cn3nc(C4CC4)c4c3C[C@@H]3C[C@H]43)n(-c3ccc(Cl)c4c(NS(C)(=O)=O)nn(CCN5CCC(F)(F)C5)c34)c(=O)c12` (atropisomer, axis not shown; (P)) [Example 232, N-[(1S)-1-[(3P)-3-{4-chloro-1-[2-(3,3-difluoropyrrolidin-1-yl)ethyl]-3-methanesulfonamido-1H-indazol-7-yl}-7-(4,4-difluorocyclohexyl)-5-methyl-4-oxo-3H,4H-pyrido[2,3-d]pyrimidin-2-yl]-2-(3,5-difluorophenyl)ethyl]-2-[(2S,4S)-9-cyclopropyl-7,8-diazatricyclo[4.3.0.0^2,^4]nona-1(6),8-dien-7-yl]acetamide]: the concentration for a half-maximal effect (EC50) in series [1] was found to be 9 pM. For the same molecule, the CC50 at 4 days in series [2] was over 50000 pM.
For `CS(=O)(=O)Nc1nn(CCN2CCC(F)(F)CC2)c2c(-n3c([C@H](Cc4cc(F)cc(F)c4)NC(=O)Cn4nc(C(F)F)c5c4C(F)(F)[C@@H]4C[C@H]54)nc4nc(C5CCC(F)(F)CC5)ccc4c3=O)ccc(Cl)c12` (atropisomer, axis not shown; (P)) [Example 130, N-[(1S)-1-[(3P)-3-{4-chloro-1-[2-(4,4-difluoropiperidin-1-yl)ethyl]-3-methanesulfonamido-1H-indazol-7-yl}-7-(4,4-difluorocyclohexyl)-4-oxo-3H,4H-pyrido[2,3-d]pyrimidin-2-yl]-2-(3,5-difluorophenyl)ethyl]-2-[(2S,4R)-9-(difluoromethyl)-5,5-difluoro-7,8-diazatricyclo[4.3.0.0^2,^4]nona-1(6),8-dien-7-yl]acetamide], in that order: 13 pM and over 50000 pM.
In the case of `Cc1cc(C2CCC(F)(F)CC2)nc2nc([C@H](Cc3cc(F)cc(F)c3)NC(=O)Cn3nc(C4CC4)c4c3C[C@@H]3C[C@H]43)n(-c3ccc(Cl)c4c(NS(C)(=O)=O)nn(CCN5CCCCC5)c34)c(=O)c12` (atropisomer, axis not shown; (P)) [Example 276, N-[(1S)-1-[(3P)-3-{4-chloro-3-methanesulfonamido-1-[2-(piperidin-1-yl)ethyl]-1H-indazol-7-yl}-7-(4,4-difluorocyclohexyl)-5-methyl-4-oxo-3H,4H-pyrido[2,3-d]pyrimidin-2-yl]-2-(3,5-difluorophenyl)ethyl]-2-[(2S,4S)-9-cyclopropyl-7,8-diazatricyclo[4.3.0.0^2,^4]nona-1(6),8-dien-7-yl]acetamide], in series [1], the EC50 came to 16 pM. For the same molecule, the CC50 at 4 days in series [2] was over 50000 pM.
With `COCCCn1nc(NS(C)(=O)=O)c2c(Cl)ccc(-n3c([C@H](Cc4cc(F)cc(F)c4)NC(=O)Cn4nc(C(F)F)c5c4C(F)(F)[C@@H]4C[C@H]54)nc4nc(C5CCC(F)(F)CC5)cc(NCCN5CCN(C(C)=O)CC5)c4c3=O)c21` (atropisomer, axis not shown; (P)) [Example 536, N-[(1S)-1-[(3P)-5-{[2-(4-acetylpiperazin-1-yl)ethyl]amino}-3-[4-chloro-3-methanesulfonamido-1-(3-methoxypropyl)-1H-indazol-7-yl]-7-(4,4-difluorocyclohexyl)-4-oxo-3H,4H-pyrido[2,3-d]pyrimidin-2-yl]-2-(3,5-difluorophenyl)ethyl]-2-[(2S,4R)-9-(difluoromethyl)-5,5-difluoro-7,8-diazatricyclo[4.3.0.0^2,^4]nona-1(6),8-dien-7-yl]acetamide], the EC50 in series [1] is 25 pM. In addition, the CC50 at 4 days in series [2] was over 20000 pM.
In the case of `Cc1cc(C2CCC(F)(F)CC2)nc2nc([C@H](Cc3cc(F)cc(F)c3)NC(=O)Cn3nc(C4CC4)c4c3C[C@@H]3C[C@H]43)n(-c3ccc(Cl)c4c(NS(C)(=O)=O)nn(CCN5C[C@@H](C)O[C@@H](C)C5)c34)c(=O)c12` (atropisomer, axis not shown; (P)) [Example 230, N-[(1S)-1-[(3P)-3-(4-chloro-1-{2-[(2R,6S)-2,6-dimethylmorpholin-4-yl]ethyl}-3-methanesulfonamido-1H-indazol-7-yl)-7-(4,4-difluorocyclohexyl)-5-methyl-4-oxo-3H,4H-pyrido[2,3-d]pyrimidin-2-yl]-2-(3,5-difluorophenyl)ethyl]-2-[(2S,4S)-9-cyclopropyl-7,8-diazatricyclo[4.3.0.0^2,^4]nona-1(6),8-dien-7-yl]acetamide], the concentration for a half-maximal effect (EC50) in series [1] was determined as 6 pM. In addition, the CC50 at 4 days in series [2] is over 50000 pM.
On to `COCCCn1nc(NS(C)(=O)=O)c2c(Cl)ccc(-n3c([C@H](Cc4cc(F)cc(F)c4)NC(=O)Cn4nc(C(F)F)c5c4C(F)(F)[C@@H]4C[C@H]54)nc4nc(C5CCC(F)(F)CC5)cc(NCCC#N)c4c3=O)c21` (atropisomer, axis not shown; (P)) [Example 433, N-[(1S)-1-[(3P)-3-[4-chloro-3-methanesulfonamido-1-(3-methoxypropyl)-1H-indazol-7-yl]-5-[(2-cyanoethyl)amino]-7-(4,4-difluorocyclohexyl)-4-oxo-3H,4H-pyrido[2,3-d]pyrimidin-2-yl]-2-(3,5-difluorophenyl)ethyl]-2-[(2S,4R)-9-(difluoromethyl)-5,5-difluoro-7,8-diazatricyclo[4.3.0.0^2,^4]nona-1(6),8-dien-7-yl]acetamide], for which, in series [1], the EC50 stood at 37 pM. Moreover, in series [2], the CC50 at 4 days is over 20000 pM.
